# Results: patent US8722707B1, “Compositions and methods for inhibition of smooth muscle cell proliferation and neointimal hyperplasia” (The Ohio State University, priority 2009, dated 2014)
# Key:
# human aortic SMCs [1] = assay: Serum-stimulated proliferation of human aortic SMCs (viable cell count); type: cell-based
# Protocol: Human aortic SMCs were obtained at passage 3 (AoSMC; Lonza Walkersville, Inc., Walkersville, Md.). The cells were maintained in culture in a humidified incubator at 37 C and 5% CO2 in smooth muscle cell growth medium (SmG M-2). Cells were trypsinized and passaged at 95% confluence. Studies were performed using cells at passages 4 to 6 at 6 0 to 90% confluence. Cells were counted using an automated cell counter (NucleoCounter; New Brunswick Scientific, Edison, N.J.).
# We first studied the effect of HO-3867 on serum-stimulated proliferation of human aortic SMCs, in vitro (FIG. 1A).
# (§1) The cells were then treated with 0, 0.5, 1, 5, and 10 μM HO-3867 for 24 h, after which the cells were trypsinized and counted for viability. […] We observed inhibition of SMC proliferation by both phase-contrast microscopy (FIG. 1B) and by nuclear staining with DAPI (FIG. 1C). Next, we determined whether the growth inhibition of SMC by HO-3867 was due to cell cycle arrest or apoptosis. SMCs were treated with 10 μM HO-3867 for 12 or 24 h. The cells were then fixed, and cell cycle populations were determined by flow cytometry.
# human aortic SMCs [2] = assay: Cell cycle analysis by flow cytometry in SMCs; type: cell-based; conditions: 10 μM for 12 or 24 h
# Protocol: Flow cytometry was performed (Selvendiran K, Bratasz A, Tong L, Ignarro L J, and Kuppusamy P, NCX-4016, a nitro-derivative of aspirin, inhibits EGFR and STAT3 signaling and modulates Bcl-2 proteins in cisplatin-resistant human ovarian cancer cells and xenografts. Cell Cycle 7 :8188).
# as §1
# PTEN [3] = assay: PTEN expression and activation in SMCs (Western blot, immunofluorescence, RT-PCR); type: cell-based, human; design: PTEN mRNA expression: dose or concentration left out as unconfirmed
# Protocol: (§2) Western blotting was performed as reported previously (Selvendiran K, Tong L, Vishwanath S, Bratasz A, Trigg N J, Kutala V K, Hideg K, and Kuppusamy P, EF 24 induces G 2/M arrest and apoptosis in cisplatin-resistant human ovarian cancer cells by increasing PTEN expression. J Biol Chem 282::28609-28618).
# (§3) SMCs, grown on Lab-Tek Chamber slides (Nalge Nunc International, Rochester, N.Y.), were fixed with 4% paraformaldehyde for 10 min at room temperature and then washed in PBS containing 0.05% Tween 20. Nonspecific reactions were blocked with Protein B lock Serum-Free (DAKO, Kyoto, Japan) and then incubated with an anti-PTEN, MMP-2, or MMP-9 antibody at 4 C overnight. After washing in PBS containing 0.05% Tween 20, the specimens were treated with Alexa Fluor goat anti-mouse IgG (H+L) antibody (Invitrogen, Carlsbad, Calif.) for 45 min at room temperature and then counterstained by propidium iodide after digestion of RNA by RNase (Invitrogen). The immunostaining of PTEN, MMP-2, and MMP-9 proteins was visualized using a fluorescence microscope (Nikon, Tokyo, Japan).
# Total RNA was isolated from SMCs using the RNeasy system according to the instructions of the manufacturer. RNA quantification was done using spectrophotometry. Reverse transcription (RT)-PCR analysis for the mRNA expressions in PTEN and the internal control GAPDH was carried out using a GeneAmp PCR System Veriti thermo cycler (Applied Biosystems, Foster City, Calif.) under the following conditions: initial denaturation at 94 C for 2 min, 35 cycles of amplification (denaturation at 94 C for 30 s, annealing at 50 C for 30 s, and extension at 72 C for 30 s), and extension at 72 C for 5 min. The sequences (5′-3′) for the primer pairs of PTEN and GAPDH, respectively, were as follows:
# This was further confirmed by immunofluorescence microscopy (FIG. 2B).
# To confirm whether the increase in the expression of PTEN was due to its transcriptional induction by HO-3867, we performed RT-PCR analysis for PTEN mRNA.
# ATF-2 = ATF-2 activation in SMCs (Western blot); type: cell-based, human; design: dose or concentration left out as unconfirmed; conditions: HO-3867 (FIG. 3A legend)
# Protocol: as §2
# (§4) We next wanted to check the involvement of reactive oxygen species-mediated p38 mitogen-activated protein kinase pathways in the activation of ATF-2.
# reactive oxygen species = assay: Production of reactive oxygen species in cultured SMCs; type: cell-based, human; conditions: data not shown
# Description: as §4
# [4] = system: p38 mitogen-activated protein kinase; assay: Activation of p38 mitogen-activated protein kinase in cultured SMCs; type: cell-based, human; conditions: data not shown
# Description: as §4
# MMP-2 [5] = assay: MMP-2 expression in SMCs (Western blot, immunofluorescence); type: cell-based, human; conditions: 10 μM for 12 or 24 h
# Protocol: as §2, §3
# (§5) We investigated whether the HO-3867-induced PTEN expression could suppresses MMP expression in SMCs.
# MMP-9 [6] = assay: MMP-9 expression in SMCs (Western blot, immunofluorescence); type: cell-based, human; conditions: 10 μM for 12 or 24 h
# Protocol: as §2, §3, §5
# NF-κB p65 = NF-κB p65 expression in SMCs (Western blot); type: cell-based, human; conditions: 10 μM, 24-h exposure
# Protocol: as §2
# In addition, HO-3867 inhibited NF-κB p65, one of the main regulator mechanisms in the inflammatory activation of MMP-9 in SMCs (FIG. 5A).
# FAK = FAK expression in SMCs (Western blot); type: cell-based, human; conditions: 10 μM, 24-h exposure
# Protocol: as §2
# [7] = system: human aortic endothelial cells; assay: Inhibitory effect on human aortic endothelial cells; type: cell-based; conditions: 10 μM
# [8] = system: p53, p21, ERK1/2, cyclin D1, Akt; assay: Cell cycle regulatory proteins in SMCs (Western blot); type: cell-based, human; conditions: SMCs treated with HO-3867
# Protocol: as §2
# [9] = system: PTEN cDNA-transfected SMCs; assay: PTEN cDNA-transfected SMCs treated with HO-3867 (survival, cell cycle, cleaved caspase-3); type: cell-based, human
# Protocol: The PTEN siRNA and cDNA transfection experiments were performed as reported (Selvendiran et al., 2007, supra).
# We investigated whether the PTEN overexpression was responsible for the inhibition of cell survival and proliferation in SMCs. We used wild-type PTEN cDNA transfection into SMCs for these experiments. Twenty-four hours after transfection, the cells were treated with 10 μM HO-3867 for 12 h.
# rat carotid artery = assay: Neointimal formation after balloon injury in rat carotid artery (morphometric analysis); type: in vivo, Sprague-Dawley rats; conditions: subcutaneous
# Protocol: (§6) All experiments involving animals were performed in accordance with the relevant guidelines and regulations approved by the Internal Animal Care and Use Committee of The Ohio State University. Sprague-Dawley rats weighing 300 to 350 g were anesthetized by an intraperitoneal injection of ketamine (6 0 mg/kg) and xylazine (5 mg/kg). Under a stereomicroscope, the right common, external, and internal carotid arteries were exposed by a longitudinal midline cervical incision. Blood flow was temporarily interrupted by ligation of the common and internal carotid arteries using vessel clips. The external carotid artery was ligated permanently using 6-0 silk suture. A 2F Fogarty arterial embolectomy catheter (Edwards Lifesciences, Irvine, Calif.) was introduced through an arteriotomy in the external carotid artery just below the ligature and advanced to the common carotid artery. To produce the injury, the balloon was inflated with saline and passed six times with rotation from just under the proximal edge of the omohyoid muscle to the carotid bifurcation. The balloon was then deflated, and the catheter was withdrawn. Blood flow was restored by removing the clips on the common and internal carotid arteries. After visual inspection to ascertain adequate pulsation of the common carotid artery, the surgical incision was closed, and the rats were allowed to recover from anesthesia in a humidified and warmed chamber for 2 to 4 h.
# Immediately after completion of the carotid injury procedure, subcutaneous administration of HO-3867 (in 10% DMSO+40% polyethylene glycol+50% PBS) commenced at a dose of 5 or 10 mg/kg/day, and continued for 2 weeks (n=5 for each group). The control group received the vehicle only. After treatment for 14 days, the animals were sacrificed with an overdose of pentobarbital (200 mg/kg), and the carotid arteries were collected for morphometric analysis and isolation of proteins for analysis by Western blotting. […] The intimal and medial areas were measured using MetaMorph software (Molecular Devices, Sunnyvale, Calif.), and intimal/medial ratios were calculated. […]
# PTEN [10] = assay: PTEN expression in rat carotid artery tissue after balloon injury; type: in vivo, Sprague-Dawley rats; conditions: subcutaneous, 14 days
# Protocol: as §2
# (§7) All experiments involving animals were performed in accordance with the relevant guidelines and regulations approved by the Internal Animal Care and Use Committee of The Ohio State University. Sprague-Dawley rats weighing 300 to 350 g were anesthetized by an intraperitoneal injection of ketamine (6 0 mg/kg) and xylazine (5 mg/kg). Under a stereomicroscope, the right common, external, and internal carotid arteries were exposed by a longitudinal midline cervical incision. Blood flow was temporarily interrupted by ligation of the common and internal carotid arteries using vessel clips. The external carotid artery was ligated permanently using 6-0 silk suture. […]
# (§8) Immediately after completion of the carotid injury procedure, subcutaneous administration of HO-3867 (in 10% DMSO+40% polyethylene glycol+50% PBS) commenced at a dose of 5 or 10 mg/kg/day, and continued for 2 weeks (n=5 for each group). […] The intimal and medial areas were measured using MetaMorph software (Molecular Devices, Sunnyvale, Calif.), and intimal/medial ratios were calculated. […]
# [11] = system: MMP-2, MMP-9, NF-κB p65, pERK1/2, pAkt, cyclin D1, p53, cleaved caspase-3; assay: Western blot of regulatory proteins in rat carotid artery tissue after balloon injury; type: in vivo, Sprague-Dawley rats
# Protocol: as §2
# as §6, with “After visual inspection to ascertain adequate pulsation of the common carotid artery, the surgical incision was closed, and the rats were allowed to recover from anesthesia in a humidified and warmed chamber for 2 to 4 h.” left out
# Immediately after completion of the carotid injury procedure, subcutaneous administration of HO-3867 (in 10% DMSO+40% polyethylene glycol+50% PBS) commenced at a dose of 5 or 10 mg/kg/day, and continued for 2 weeks (n=5 for each group). […] The intimal and medial areas were measured using MetaMorph software (Molecular Devices, Sunnyvale, Calif.), and intimal/medial ratios were calculated.
# MMP-2 [12] = assay: MMP-2 activity by gelatin zymography in rat carotid artery; type: in vivo, Sprague-Dawley rats; conditions: treatment group compared with injured/untreated group
# Protocol: (§9) MMP-2 and MMP-9 was determined by gelatin zymography as reported previously (Cho and Reidy, 2002). Matrix metalloproteinase-9 is necessary for the regulation of smooth muscle cell replication and migration after arterial injury. Circ Res 91:845-851).
# as §7, §8
# MMP-9 [13] = assay: MMP-9 activity by gelatin zymography in rat carotid artery; type: in vivo, Sprague-Dawley rats; conditions: treatment group compared with injured/untreated group
# Protocol: as §9, §7, §8
# [14] = 10 μM, as early as 1 h of treatment, immunoblot
# [15] = Western blot of carotid tissue, 14 days treatment
smiles,measurement,setting,value
"CC1(C)C=C(CN2C/C(=C\c3ccc(F)cc3)C(=O)/C(=C/c3ccc(F)cc3)C2)C(C)(C)N1O [HO-3867, 1-[(1-Oxyl-2,2,5,5-tetramethyl-2,5-dihydro-1H-pyrrol-3-yl)methyl]-(3E,5E)-3,5-Bis(4-fluorobenzylidene)piperidin-4-one]",viable cell count,"human aortic SMCs [1]; 0, 0.5, 1, 5, and 10 μM for 24 h, FBS-stimulated SMCs",decreased in a concentration-dependent manner
same,EC50,"human aortic SMCs [1]; 10% FBS-stimulated human SMCs, HO-3867 for 24 h, viable cell count",3.82 µM
same,cell-counts,"human aortic SMCs [1]; at 1, 5, and 10 μM, 24 h, p<0.05 versus untreated cells",Significantly reduced cell-counts
same,sub-G1 population (apoptosis),human aortic SMCs [2],no effect
same,G1 cell cycle arrest,human aortic SMCs [2]; time-dependent,induced G1 cell cycle arrest
same,PTEN activation (pPTEN),PTEN [3]; [14],induced
same,PTEN expression,PTEN [3]; [14],induced
same,PTEN mRNA expression,"PTEN [3]; RT-PCR, in 3 h",increase
same,time to ATF-2 activation,ATF-2,≤ 15 min
same,production of reactive oxygen species,reactive oxygen species,did not detect
same,activation of p38 mitogen-activated protein kinase,[4],did not detect
same,MMP-2 expression,MMP-2 [5],down-regulated
same,MMP-9 expression,MMP-9 [6],down-regulated
same,NF-κB p65,NF-κB p65,inhibited
same,expression of FAK,FAK,down-regulated
same,inhibitory effect on human aortic endothelial cells,[7],did not have any significant inhibitory effect
same,Akt level,[8],without any change
same,ERK1/2 and cyclin D1,[8],down-regulation
same,p53 and p21,[8],induction
same,survival of PTEN cDNA-transfected cells,"[9]; 10 μM HO-3867, compared with untreated or nontransfected cells",even more significant reduction
same,"apoptotic population (sub-G1), PTEN cDNA overexpression plus HO-3867","[9]; 10 μM, 12 h, compared with PTEN cDNA- or HO-3867-alone-treated groups",significantly increased
same,"cleaved caspase-3 levels, PTEN cDNA+HO-3867-treated cells","[9]; 10 μM, 12 h, compared with untreated or nontransfected cells",substantial increase
same,inhibition of neointimal formation,"rat carotid artery; 5 mg/kg, 14 days, data not shown",did not show any significant inhibition
same,intima/media ratio,"rat carotid artery; daily for 14 days after balloon injury, versus injured/untreated",significantly reduced
same,intimal thickening,"rat carotid artery; daily for 14 days after balloon injury, 10 mg/kg (FIG. 7A)",significantly inhibited
same,PTEN level in carotid artery tissue,PTEN [10]; 5 mg/kg,restored PTEN to the control level
same,PTEN level in carotid artery tissue,PTEN [10]; 10 mg/kg,increased the PTEN level significantly above control level
same,apoptosis in vivo (activation of cleaved caspase-3),[11]; 10-mg/kg dose,induced apoptosis in vivo
same,"MMP-2, MMP-9, NF-κB p65, pERK1/2, pAkt, and cyclin D1 in tissue",[11]; [15],down-regulation
same,p53 and cleaved caspase-3 in tissue,[11]; [15],up-regulation
same,MMP-2 activity,MMP-2 [12],significantly down-regulated
same,MMP-9 activity,MMP-9 [13],significantly down-regulated
